Reference: ChEMBL document CHEMBL3430912, “GSK Tres Cantos Anti-Kinetoplastid Screening (TCAKS) Data”

How the values were obtained:
Trypanosoma cruzi [1] = experiment: GSK_TCAKS: pIC50 Trypanosoma cruzi viability assay using beta-GAL activity. This assay was run at single shot at 5uM compound concentration per well. The biological reagents consisted of NIH-3T3 host cells and trypomastigotes parasitic cells; both cell types were set to a 3.3 * 10^5 cells/mL dilution in assay DMEM by means of a CASY cell counter device using a 60um capillary. 6 uL of the mixture were dispensed per well (about 1 * 10^3 host-cells and 1 * 10^3 parasites) with a Multidrop Combi dispenser. […] In all wells, the percentage of DMSO never exceeded 0.5%. Plates incubated for four days at 37C, 5% CO2. The substrate used for the assay fluorescence intensity (FLINT) readout was resorufin-beta-D-galactopiranoside (Sigma-Aldrich) at 5uM per well. It was diluted in PBS supplemented with the soft detergent Igepal (Fluka).; format: functional, organism-based, Mus musculus; conditions: Tulahuen, NIH3T3
Trypanosoma cruzi [2] = experiment: (§1) GSK_TCAKS: pIC50 Trypanosoma cruzi Imaging: Infected Cells. […] Cells were then washed once with PBS before infection. T. cruzi trypomastigotes, collected at days 5 to 8 after infection from LLC-MK2 parasite infected cultures, were allowed to swim out for 4h at 37C from a centrifuged pellet (2,500 rpm/10 min/room temperature). Trypomastigotes were then collected and counted in a CASY Cell Counter. Trypomastigotes, in supplemented DMEM, were added to H9c2 cultures in a multiplicity of infection of 1 and incubated for 18 h. Cells were washed once with PBS before incubation of the infected H9c2 monolayer with trypsin (Life-Technologies) to detach cells from the flask. Cells were counted in a CASY Cell Counter using a 150 um capillary and their density set at 5 * 10^4 cells per mL in supplemented assay DMEM. Infected H9c2 were dispensed into 384-well poly-lysine coated assay plates at 50uL per well using a Multidrop Combi dispenser. After seeding them, the plates were incubated at 37C, 5% CO2 for 72h. Cultures were then fixed and stained by addition of 50 uL of a solution containing 8% formaldehyde and 4 uM DRAQ5 DNA dye (BioStatus, UK) per well. […] Five images were collected per well for reliable statistical analysis. Automated image analysis was performed with a script developed on Acapella High Content Imaging and Analysis Software (PerkinElmer). Output: percentage of infected cells per well as a second infection marker.; format: functional, organism-based, Rattus norvegicus; conditions: H9c2, 4 h
Trypanosoma cruzi [3] = experiment: GSK_TCAKS: pIC50 Trypanosoma cruzi Imaging: Amastigotes/Cell. […] Cells were then washed once with PBS before infection. T. cruzi trypomastigotes, collected at days 5 to 8 after infection from LLC-MK2 parasite infected cultures, were allowed to swim out for 4h at 37C from a centrifuged pellet (2,500 rpm/10 min/room temperature). Trypomastigotes were then collected and counted in a CASY Cell Counter. Trypomastigotes, in supplemented DMEM, were added to H9c2 cultures in a multiplicity of infection of 1 and incubated for 18 h. Cells were washed once with PBS before incubation of the infected H9c2 monolayer with trypsin (Life-Technologies) to detach cells from the flask. Cells were counted in a CASY Cell Counter using a 150 um capillary and their density set at 5 * 10^4 cells per mL in supplemented assay DMEM. Infected H9c2 were dispensed into 384-well poly-lysine coated assay plates at 50uL per well using a Multidrop Combi dispenser. After seeding them, the plates were incubated at 37C, 5% CO2 for 72h. Cultures were then fixed and stained by addition of 50 uL of a solution containing 8% formaldehyde and 4 uM DRAQ5 DNA dye (BioStatus, UK) per well. […] Five images were collected per well for reliable statistical analysis. Automated image analysis was performed with a script developed on Acapella High Content Imaging and Analysis Software (PerkinElmer). Output: number of amastigotes per cell as infection level measurement.; format: functional, organism-based, Rattus norvegicus; conditions: H9c2, 4 h
Trypanosoma cruzi [4] = experiment: as §1, with “H2C9” for “Trypanosoma cruzi”, “H9c2 Host Cardiomyocytes.” for “Infected Cells.”, “Number” for “percentage”, “H9c2 Host Cardiomyocytes nuclei to determine drug-related cytotoxicity.” for “infected cells per well as a second infection marker.”; format: functional, organism-based, Rattus norvegicus; conditions: H9c2, 4 h
Leishmania donovani [5] = experiment: GSK_TCAKS: pIC50 Leishmania donovani viability assay using fluorescence intensity. Assay plates (1536-well) were prepared by adding 30nL per well of compound. For single shot assay, the final compound concentration was 5uM. […] Briefly, eGFP LdBOB axenic amastigotes were harvested, fixed and counted in a CASY cell counter (Roche-Applied Science). A final concentration of 1.5 * 10^5 cells per well were prepared in amastigote media containing 500 U/mL penicillin/streptomycin (Invitrogen) and 6uL was dispensed to each experimental well using a Multidrop Combi dispenser (Thermo Scientific). 6uL of assay media was dispensed to control columns used as reference for 100% compound response. Following incubation for 72 h at 37C, 5% CO2, 2 uL of resazurin was added to each well at a final concentration of 0.5 mM in phosphate buffered saline (PBS) with IGEPAL (Sigma-Aldrich), 0.05% (v/v).; format: functional, organism-based
Leishmania donovani [6] = experiment: GSK_TCAKS: pIC50 Leishmania donovani Imaging: Infected Macrophages. Assay plates (384-well) were prepared by adding 250nL of compound to each well. For single shot assay, the final compound concentration was 5 uM. […] Automated image analysis was performed with a script developed on Acapella High Content Imaging and Analysis Software (PerkinElmer). Output: Percent of infected macrophage cells were reported for each well.; format: functional, organism-based, Homo sapiens; conditions: THP-1
Leishmania donovani [7] = experiment: GSK_TCAKS: pIC50 Leishmania donovani Imaging: Amastigotes/Macrophages. Assay plates (384-well) were prepared by adding 250nL of compound to each well. For single shot assay, the final compound concentration was 5 uM. […] Automated image analysis was performed with a script developed on Acapella High Content Imaging and Analysis Software (PerkinElmer). Output: Average number of amastigotes per macrophage cell were reported for each well.; format: functional, organism-based, Homo sapiens; conditions: THP-1
Leishmania donovani [8] = experiment: GSK_TCAKS: pIC50 Leishmania donovani Imaging: THP-1 Host Macrophages. Assay plates (384-well) were prepared by adding 250nL of compound to each well. For single shot assay, the final compound concentration was 5 uM. […] Automated image analysis was performed with a script developed on Acapella High Content Imaging and Analysis Software (PerkinElmer). Output: THP-1 cell count were reported for each well.; format: functional, organism-based, Homo sapiens
[9] = tested on: Trypanosoma brucei brucei; experiment: GSK_TCAKS: pIC50 Trypanosoma brucei viability assay using fluorescence intensity. Assay plates (1536-well) were prepared by dispensing 25nL of compound solution per well using an Echo acoustic dispenser (Labcyte).; format: functional, organism-based; conditions: Lister 427, 2 h
[10] = tested on: Trypanosoma brucei brucei; experiment: GSK_TCAKS: pIC50 Trypanosoma brucei viability assay using luminiscence. Assay plates (1536-well) were prepared. T. brucei cultures were harvested and counted in a CASY cell counter. A parasite suspension was prepared at a final concentration of 5 * 10^4 cells/mL in complete HMI9 medium and 6uL was dispensed to all wells containing compounds using a Multidrop Combi dispenser. 6uL of HMI9 media with 0.4% DMSO were dispensed to control columns. Plates were incubated for 24 h at 37C, 5% CO2 then tempered for 10 min at room temperature. ATP content was quantified by adding 4 uL of CellTiter-Glo Reagent (Promega) according to the manufacturer's instructions. Luminescence was measured using a ViewLux.; format: functional, organism-based; conditions: Lister 427, CASY
[11] = GSK_TCAKS: pIC50 HepG2 human cell line viability assay using luminiscence. […] Seeding density was checked to ensure that new mono-layers were not more than 50% confluent at the time of harvesting. Cell suspension was added to 500 mL of the same medium at a final density of 1.2 * 10^5 cells/mL. This cell suspension was dispensed (25 uL, 3000 cells per well) into 384-well clear-bottom plates using a Multidrop Combi dispenser. Prior to addition of the cell suspension, the screening compounds (250 nL) were pre-dispensed into the plates with an Echo liquid handler. Plates were incubated for 48 h at 37C, 5% CO2. After incubation, plates equilibrated at room temperature for 30 min before proceeding to develop the luminescent signal. The signal developer, CellTiter-Glo Reagent, was allowed to equilibrate at room temperature for 30 min and added to the plates (25uL per well) using a Multidrop Combi dispenser. Plates were left for 10 min at room temperature for stabilization and then read using a ViewLux.; format: toxicity, cell-based
[12] = biological target: Sterol 14-alpha demethylase (Trypanosoma cruzi (strain CL Brener), UniProt Q7Z1V1); experiment: GSK_TCAKS: pIC50 CYP51 from Trypanosoma cruzi.; format: functional
Sterol 14-alpha demethylase, sequence (Q7Z1V1 whole entry): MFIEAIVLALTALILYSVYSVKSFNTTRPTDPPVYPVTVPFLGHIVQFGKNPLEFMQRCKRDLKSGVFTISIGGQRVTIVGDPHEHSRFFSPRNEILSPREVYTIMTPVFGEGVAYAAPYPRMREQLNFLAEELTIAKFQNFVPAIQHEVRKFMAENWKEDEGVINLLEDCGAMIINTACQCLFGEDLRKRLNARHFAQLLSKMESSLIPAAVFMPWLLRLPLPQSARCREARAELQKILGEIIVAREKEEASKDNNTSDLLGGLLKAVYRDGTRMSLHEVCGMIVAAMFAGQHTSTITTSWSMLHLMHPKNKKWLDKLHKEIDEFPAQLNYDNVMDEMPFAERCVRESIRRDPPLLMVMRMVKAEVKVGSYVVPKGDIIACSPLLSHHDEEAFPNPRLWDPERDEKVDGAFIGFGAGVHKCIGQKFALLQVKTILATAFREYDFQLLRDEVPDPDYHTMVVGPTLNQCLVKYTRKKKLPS

| Structure (SMILES) | IC50 (Trypanosoma cruzi [1]) | IC50 (Trypanosoma cruzi [2]) | IC50 (Trypanosoma cruzi [3]) | IC50 (Trypanosoma cruzi [4]) | IC50 (Leishmania donovani [5]) | IC50 (Leishmania donovani [6]) | IC50 (Leishmania donovani [7]) | IC50 (Leishmania donovani [8]) | IC50 [9] | IC50 [10] | IC50 at 48 h [11] | IC50 [12] |
| --- | --- | --- | --- | --- | --- | --- | --- | --- | --- | --- | --- | --- |
| COc1cnc2ccc(=O)n(CCN3CCC(NC(=O)c4ccc(Cl)cc4)CC3)c2c1 | 0.126 µM | 0.251 µM | 0.0794 µM | 0.631 µM | 2 µM | > 50.1 µM | 3.98 µM | > 50.1 µM | 0.0794 µM | 0.1 µM | > 100 µM | 10 µM |
| CCn1c(-c2nonc2N)nc2c([C@@H](C)O)ncc(O[C@H](CN)c3ccccc3)c21 | 7.94 µM | 10 µM | 7.94 µM | 0.631 µM | 20 µM | 5.01 µM | 3.16 µM | 3.16 µM | 0.631 µM | 0.794 µM | 79.4 µM | 25.1 µM |
| Cc1nn(-c2nc3ccccc3s2)c2c1C(c1ccc(OCC(N)=O)cc1)SCC(=O)N2 (configuration not stated) | 5.01 µM | > 50.1 µM | > 50.1 µM | > 50.1 µM | > 50.1 µM | > 50.1 µM | > 50.1 µM | > 50.1 µM | 0.02 µM | 0.0316 µM | > 100 µM | > 100 µM |
| COc1cc(C2SCC(=O)Nc3c2c(C)nn3-c2nc3ccccc3s2)cc(OC)c1O (configuration not stated) | > 50.1 µM | > 50.1 µM | > 50.1 µM | > 50.1 µM | 6.31 µM | 0.316 µM | 0.251 µM | > 50.1 µM | 6.31 µM | > 39.8 µM | > 100 µM | 5.01 µM |
| Cc1ccccc1NS(=O)(=O)c1ccc2[nH]cc(C(=O)NC3CCCC(C)C3C)c(=O)c2c1 (configuration not stated) | 5.01 µM | 6.31 µM | 3.16 µM | 6.31 µM | 25.1 µM | 15.8 µM | 15.8 µM | 12.6 µM | 0.316 µM | 0.631 µM | 39.8 µM | 5.01 µM |
| COCCn1cnc2cc(NC(=O)C3CCCCC3)cc(C(=O)N3CCc4sccc4C3)c21 | 20 µM | 31.6 µM | 20 µM | > 50.1 µM | > 50.1 µM | > 50.1 µM | > 50.1 µM | > 50.1 µM | 0.794 µM | 1 µM | > 100 µM | 50.1 µM |
| CCC(=O)Nc1ccccc1C(=O)Nc1ccccn1 | > 50.1 µM | > 50.1 µM | > 50.1 µM | > 50.1 µM | > 50.1 µM | > 50.1 µM | > 50.1 µM | > 50.1 µM | 0.316 µM | 0.398 µM | > 100 µM | > 100 µM |
| COc1ncc(-c2ccc3nccc(-c4ccncc4)c3c2)cc1NS(=O)(=O)C1CC1 | 0.316 µM | 2.51 µM | 2 µM | 0.794 µM | 1.26 µM | 1.26 µM | 0.316 µM | 1 µM | 0.2 µM | 0.398 µM | > 100 µM | 7.94 µM |
| Cc1nc(N2CC(C)OC(C)C2)sc1C(=O)Nc1ccc2c(c1)OCO2 (configuration not stated) | 2 µM | 3.98 µM | 2.51 µM | > 50.1 µM | 6.31 µM | 7.94 µM | 3.16 µM | > 50.1 µM | 39.8 µM | > 39.8 µM | > 100 µM | 39.8 µM |
| N#Cc1cccc(Cc2cc(Nc3cc(C4CC4)[nH]n3)nc(N3CC[C@H]3C(N)=O)n2)c1 | 0.398 µM | 3.98 µM | 1 µM | 0.00398 µM | 0.631 µM | 0.2 µM | 0.0794 µM | 0.0316 µM | 0.0398 µM | 0.0631 µM | > 100 µM | 50.1 µM |
| COc1ccc(C(=O)Nc2c(C)nn(COc3cccc(C(F)(F)F)c3)c2C)cc1 | 25.1 µM | 39.8 µM | 25.1 µM | > 50.1 µM | > 50.1 µM | > 50.1 µM | > 50.1 µM | 31.6 µM | 0.794 µM | 0.794 µM | > 100 µM | 12.6 µM |
